US9695155B2, “Herbicidal substituted pyrimidinyloxy benzene compounds” (E. I. DU PONT DE NEMOURS AND COMPANY, priority 2013, dated 2017)

Tests used:
wheat, winter = assay: Test C preemergence; assay type: in vivo, Triticum aestivum; settings: for Wheat plant response rating: preemergence; for Plant response rating, Wheat: Preemergence, scale 0 to 100, 0 no effect, 100 complete control
Excerpt: Seeds of plant species selected from blackgrass (Alopecurus myosuroides), Italian ryegrass (Lolium multiflorum), wheat, winter (winter wheat, Triticum aestivum), galium (catchweed bedstraw, Galium aparine), corn (Zea mays), large (Lg) crabgrass (Digitaria sanguinalis), giant foxtail (Setaria faberii), johnsongrass (Sorghum halepense), lambsquarters (Chenopodium album), morningglory (Ipomoea coccinea), yellow nutsedge (Cyperus esculentus), pigweed (Amaranthus retroflexus), ragweed (common ragweed, Ambrosia elatior), soybean (Glycine max), barnyardgrass (Echinochloa crus-galli), oilseed rape (Brassica napus), waterhemp (common waterhemp, Amaranthus rudis), kochia (Kochia scoparia), wild oat (Avena fatua), surinam grass (Brachiaria decumbens), foxtail, green (green foxtail, Setaria viridis), goosegrass (Eleusine indica), bromegrass, downy (downy bromegrass, Bromus tectorum), nightshade (eastern black nightshade, Solanum ptycanthum), cocklebur (common cocklebur, Xanthium strumarium), cupgrass, woolly (woolly cupgrass, Eriochloa villosa), bermudagrass (Cynodon dactylon), sunflower, (common oilseed sunflower, Helianthus annuus), Russian thistle (Salsola kali), and velvetleaf (Abutilon theophrasti) were planted into a blend of loam soil and sand and treated preemergence with test chemicals formulated in a non-phytotoxic solvent mixture which included a surfactant.
At the same time, plants selected from these crop and weed species and also barley, winter (winter barley, Hordeum vulgare), windgrass (Apera spica-venti), chickweed (common chickweed, Stellaria media), deadnettle (henbit deadnettle, Lamium amplexicaule), and canarygrass (littleseed canarygrass, Phalaris minor) were planted in pots containing Redi-Earth® planting medium (Scotts Company, 14111 Scottslawn Road, Marysville, Ohio 43041) comprising spaghnum peat moss, vermiculite, wetting agent and starter nutrients and treated with postemergence applications of test chemicals formulated in the same manner. Plants ranged in height from 2 to 18 cm (1- to 4-leaf stage) for postemergence treatments. Treated plants and controls were maintained in a greenhouse for 13 to 15 days, after which time all species were compared to controls and visually evaluated. Plant response ratings, summarized in Table C, are based on a scale of 0 to 100 where 0 is no effect and 100 is complete control. A dash (-) response means no test result.

ragweed = assay: Test C preemergence; assay type: in vivo, Ambrosia elatior; settings: for Ragweed plant response rating: preemergence; for Plant response rating, Ragweed: Preemergence, scale 0 to 100, 0 no effect, 100 complete control
Summary of the method: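 Rated visually on 0–100 (100 = complete control) after 13–15 days under glass. Treatments went onto freshly seeded loam/sand soil or onto emerged plants at the 1- to 4-leaf stage, using a surfactant-containing solvent formulation.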

soybean = assay: Test E preemergence; assay type: in vivo, Glycine max; settings: for Soybean plant response rating: scale 0 to 100 (0 no effect, 100 complete control)
Excerpt: (§1) Seeds of plant species selected from corn (Zea mays), soybean (Glycine max), velvetleaf (Abutilon theophrasti), lambsquarters (Chenopodium album), wild poinsettia (Euphorbia heterophylla), palmer pigweed (Amaranthus palmeri), waterhemp (common waterhemp, Amaranthus rudis), surinam grass (Brachiaria decumbens), large (Lg) crabgrass (Digitaria sanguinalis), Brazilian crabgrass (Digitaria horizontalis), fall panicum (Panicum dichotomiflorum), giant foxtail (Setaria faberii), green foxtail (Setaria viridis), goosegrass (Eleusine indica), johnsongrass (Sorghum halepense), ragweed (common ragweed, Ambrosia elatior), barnyardgrass (Echinochloa crus-galli), sandbur (southern sandbur, Cenchrus echinatus), arrowleaf sida (Sida rhombifolia), Italian ryegrass (Lolium multiflorum), dayflower (Virginia (VA) dayflower, Commelina virginica), field bindweed (Convolvulus arvensis), morningglory (Ipomoea coccinea), nightshade (eastern black nightshade, Solanum ptycanthum), kochia (Kochia scoparia), yellow nutsedge (Cyperus esculentus), cocklebur (common cocklebur, Xanthium strumarium), smartweed (ladysthumb smartweed, and hairy beggarticks (Bidens pilosa), were planted into a silt loam soil and treated preemergence with test chemicals formulated in a non-phytotoxic solvent mixture which included a surfactant.
(§2) At the same time, plants from these crop and weed species and also horseweed (Canada horseweed, Conyza canadensis), waterhemp_RES1, (ALS & Triazine resistant common waterhemp, Amaranthus rudis), and waterhemp_RES2, (ALS & HPPD resistant common waterhemp, Amaranthus rudis) were planted in pots containing Redi-Earth® planting medium (Scotts Company, 14111 Scottslawn Road, Marysville, Ohio 43041) comprising spaghnum peat moss, vermiculite, wetting agent and starter nutrients were treated with postemergence applications of test chemicals formulated in the same manner. Plants ranged in height from 2 to 18 cm for postemergence treatments (1- to 4-leaf stage). Treated plants and controls were maintained in a greenhouse for 14 to 21 days, after which time all species were compared to controls and visually evaluated. Plant response ratings, summarized in Table E, are based on a scale of 0 to 100 where 0 is no effect and 100 is complete control. A dash (-) response means no test result.

velvetleaf = assay: Test E preemergence; assay type: in vivo, Abutilon theophrasti; settings: for Velvetleaf plant response rating: scale 0 to 100 (0 no effect, 100 complete control)
Excerpt: as §1, §2

large (Lg) crabgrass = assay: Test E preemergence; assay type: in vivo, Digitaria sanguinalis; settings: for Crabgrass, Large plant response rating: scale 0 to 100 (0 no effect, 100 complete control)
Excerpt: as §1, §2

johnsongrass = assay: Test E preemergence; assay type: in vivo, Sorghum halepense; settings: for Johnsongrass plant response rating: scale 0 to 100 (0 no effect, 100 complete control)
Excerpt: as §1, §2

[1] = 16 g ai/ha, scale 0 to 100 (0 no effect, 100 complete control)
[2] = 62 g ai/ha, scale 0 (no effect) to 100 (complete control)
[3] = 125 g ai/ha, scale 0 (no effect) to 100 (complete control)
[4] = 125 g ai/ha, scale 0 to 100, 0 no effect, 100 complete control
[5] = 8 g ai/ha, scale 0 to 100, 0 is no effect, 100 is complete control
[6] = 250 g ai/ha, scale 0 to 100, 0 no effect, 100 complete control
[7] = 31 g ai/ha, scale 0 to 100 (0 no effect, 100 complete control)

SMILES | Wheat plant response rating (wheat, winter; [1]) | Wheat plant response rating (wheat, winter; [2]) | Wheat plant response rating (wheat, winter; [3]) | Ragweed plant response rating (ragweed; [1]) | Ragweed plant response rating (ragweed; [2]) | Ragweed plant response rating (ragweed; [3]) | Soybean plant response rating (soybean; 31 g ai/ha) | Soybean plant response rating (soybean; 62 g ai/ha) | Plant response rating, Soybean (soybean; [4]) | Velvetleaf plant response rating (velvetleaf; 31 g ai/ha) | Velvetleaf plant response rating (velvetleaf; 62 g ai/ha) | Plant response rating, Velvetleaf (velvetleaf; [4]) | Crabgrass, Large plant response rating (large (Lg) crabgrass; 16 g ai/ha) | Crabgrass, Large plant response rating (large (Lg) crabgrass; 31 g ai/ha) | Crabgrass, Large plant response rating (large (Lg) crabgrass; 62 g ai/ha) | Plant response rating, Crabgrass, Large (large (Lg) crabgrass; [4]) | Johnsongrass plant response rating (johnsongrass; 31 g ai/ha) | Johnsongrass plant response rating (johnsongrass; 62 g ai/ha) | Plant response rating, Johnsongrass (johnsongrass; [4]) | Plant response rating, Soybean (soybean; [5]) | also measured
Cc1cnc(Oc2cccc(C#N)c2-n2cc(C#N)cn2)nc1 [Compound 90] | 0 | 0 | 0 | 10 | 100 | 95 | 15 | 30 | 35 | 20 | 60 | 85 | 30 | 40 | 75 | 98 | 0 | 0 | 15 |  | Plant response rating, Wheat (wheat, winter; 31 g ai/ha): 0; Plant response rating, Ragweed (ragweed; 31 g ai/ha): 60; Velvetleaf plant response rating (velvetleaf; 16 g ai/ha): 0; Johnsongrass plant response rating (johnsongrass; 16 g ai/ha): 0
Fc1cnc(Oc2cccc(C(F)F)c2-n2cc(C(F)(F)F)cn2)nc1 [Compound 164] | 0 | 30 | 35 | 0 | 75 | 85 | 0 | 15 | 70 | 50 | 100 | 100 | 35 | 35 | 75 | 100 | 0 | 10 | 70 |  | 
FC(F)c1cccc(Oc2ncc(Cl)cn2)c1-n1cc(C(F)(F)F)cn1 [Compound 170] | 0 | 20 | 60 | 85 | 55 | 65 | 0 | 30 | 60 | 60 | 65 | 100 | 0 | 70 | 98 | 100 | 15 | 25 | 70 | 0 | Plant response rating, Velvetleaf (velvetleaf; [5]): 0; Plant response rating, Crabgrass, Large (large (Lg) crabgrass; [5]): 0; Plant response rating, Johnsongrass (johnsongrass; [5]): 15
Cc1cnc(Oc2cccc(C#N)c2-n2cc(C(F)(F)F)cn2)nc1 [Compound 180] | 0 |  | 50 | 20 |  | 98 | 35 | 70 | 90 | 35 | 80 | 100 |  | 90 | 98 | 100 | 0 | 50 | 75 |  | Plant response rating, Wheat (wheat, winter; 62 g ai/ha): 5; Plant response rating, Ragweed (ragweed; 62 g ai/ha): 80; Plant response rating, Soybean (soybean; [6]): 98; Plant response rating, Velvetleaf (velvetleaf; [6]): 100; Plant response rating, Crabgrass, Large (large (Lg) crabgrass; [6]): 100; Plant response rating, Johnsongrass (johnsongrass; [6]): 80
NC(=S)c1cccc(Oc2ncc(Cl)cn2)c1-n1cc(Cl)cn1 [Compound 292] | 0 |  | 15 | 25 |  | 70 | 0 | 40 | 50 | 30 | 35 | 90 | 0 | 20 | 90 | 100 | 15 | 20 | 35 | 0 | Wheat plant response rating (wheat, winter; [7]): 0; Plant response rating, Wheat (wheat, winter; 62 g ai/ha): 10; Ragweed plant response rating (ragweed; [7]): 35; Plant response rating, Ragweed (ragweed; 62 g ai/ha): 35; Plant response rating, Velvetleaf (velvetleaf; [5]): 0; Plant response rating, Crabgrass, Large (large (Lg) crabgrass; [5]): 0; Plant response rating, Johnsongrass (johnsongrass; [5]): 0
